Measured values published in PMC10223992, “In Silico-Motivated Discovery of Novel Potent Glycogen Synthase-3 Inhibitors: 1-(Alkyl/arylamino)-3H-naphtho[1,2,3-de]quinoline-2,7-dione Identified as a Scaffold for Kinase Inhibitor Development” (Pharmaceuticals, 2023).
Where “and” joins values, the source holds several entries; their conditions need not be identical. Identical values can stand only once. Like-named read-outs stand apart in the source and are kept apart here.

Assays:
GSK-3β = tested on: GSK-3β; design: method as in ChEMBL database [53]; settings: read-out: IC50 (GSK-3β, known actives), cited from earlier work
Homo sapiens GSK-3β = target: T1, Homo sapiens GSK-3β (Homo sapiens, UniProt P49841); test: in vitro GSK-3β binding assay (kinase inhibition, MRC PPU Dundee); type: biochemical; settings: for inhibition at 50 µM: single concentration 50 µM; for IC50: in vitro binding assay, duplicate; for % remaining activity (GSK-3β): single-dose profiling 50 μM
T1 construct: purchased MRC Protein Phosphorylation & Ubiquitylation Unit, University of Dundee (screening service)
Protocol: (§1) All predicted inhibitors for testing (except compound 3) were purchased from Vitas-M Laboratory, with purity ≥ 90%. Compound 3 was purchased from Biosynth Carbosynth with purity of 95%. Binding assay experiments against Homo sapiens GSK-3β were performed using a specialist service from the MRC Protein Phosphorylation & Ubiquitylation Unit at the University of Dundee (http://www.kinase-screen.mrc.ac.uk/ (accessed on 1 April 2023)). Initial assays underwent single concentration screening at 50 µM concentrations to determine those compounds showing the best inhibitory potential. Inhibitory activities were calculated based on maximal activities measured in the absence of an inhibitor. […] In the kinase selectivity panel screening for 14 and 19, the compounds were assayed at single concentration (50 μM) against CDK2, CDK5, CDK9, ERK1, ERK2, PKA, PKBβ, PKCα, PKCγ, GSK-3α, and GSK-3β. All binding assay experiments were performed in duplicate.

GSK-3α = GSK-3α (Homo sapiens, UniProt P49840); test: kinase selectivity screening, GSK-3α; type: biochemical; settings: for % remaining activity (GSK-3α): single-dose profiling 50 μM
Protocol: as §1

PKCγ = PKCγ (Homo sapiens, UniProt P05129); test: kinase selectivity screening, PKCγ; type: biochemical
Protocol: as §1

PKBβ = PKBβ (Homo sapiens, UniProt P31751); test: kinase selectivity screening, PKBβ; type: biochemical
Protocol: as §1

ERK2 = ERK2 (Homo sapiens, UniProt P28482); test: kinase selectivity screening, ERK2; type: biochemical
Protocol: as §1

[1] = Table S1, ChEMBL data, ref ChEMBL database [53]

Chain of GSK-3α (P49840 whole entry, species assumed): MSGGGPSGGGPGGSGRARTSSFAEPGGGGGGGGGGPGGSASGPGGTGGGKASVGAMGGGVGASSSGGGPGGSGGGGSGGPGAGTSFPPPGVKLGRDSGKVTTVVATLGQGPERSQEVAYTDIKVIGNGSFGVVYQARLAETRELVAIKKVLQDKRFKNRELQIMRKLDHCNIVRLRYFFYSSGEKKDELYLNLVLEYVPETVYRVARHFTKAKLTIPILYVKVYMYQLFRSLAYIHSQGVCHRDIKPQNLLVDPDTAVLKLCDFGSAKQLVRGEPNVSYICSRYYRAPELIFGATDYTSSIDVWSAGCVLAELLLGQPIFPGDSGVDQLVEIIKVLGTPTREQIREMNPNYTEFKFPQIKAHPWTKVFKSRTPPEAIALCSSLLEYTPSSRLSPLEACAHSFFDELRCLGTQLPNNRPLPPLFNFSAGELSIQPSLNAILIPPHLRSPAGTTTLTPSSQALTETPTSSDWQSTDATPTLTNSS
T1 sequence (P49841 whole entry): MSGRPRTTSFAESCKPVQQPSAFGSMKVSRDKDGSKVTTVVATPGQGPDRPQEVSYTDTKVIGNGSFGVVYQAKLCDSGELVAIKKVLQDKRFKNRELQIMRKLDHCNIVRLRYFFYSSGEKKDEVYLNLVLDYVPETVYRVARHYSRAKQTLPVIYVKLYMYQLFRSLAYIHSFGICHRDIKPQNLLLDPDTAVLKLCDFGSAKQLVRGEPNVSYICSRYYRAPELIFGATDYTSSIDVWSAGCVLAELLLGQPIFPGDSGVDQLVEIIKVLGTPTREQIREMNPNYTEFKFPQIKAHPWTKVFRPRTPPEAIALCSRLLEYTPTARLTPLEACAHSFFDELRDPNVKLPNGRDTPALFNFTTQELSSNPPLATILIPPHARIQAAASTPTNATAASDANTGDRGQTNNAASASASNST
Chain of PKBβ (P31751 whole entry, species assumed): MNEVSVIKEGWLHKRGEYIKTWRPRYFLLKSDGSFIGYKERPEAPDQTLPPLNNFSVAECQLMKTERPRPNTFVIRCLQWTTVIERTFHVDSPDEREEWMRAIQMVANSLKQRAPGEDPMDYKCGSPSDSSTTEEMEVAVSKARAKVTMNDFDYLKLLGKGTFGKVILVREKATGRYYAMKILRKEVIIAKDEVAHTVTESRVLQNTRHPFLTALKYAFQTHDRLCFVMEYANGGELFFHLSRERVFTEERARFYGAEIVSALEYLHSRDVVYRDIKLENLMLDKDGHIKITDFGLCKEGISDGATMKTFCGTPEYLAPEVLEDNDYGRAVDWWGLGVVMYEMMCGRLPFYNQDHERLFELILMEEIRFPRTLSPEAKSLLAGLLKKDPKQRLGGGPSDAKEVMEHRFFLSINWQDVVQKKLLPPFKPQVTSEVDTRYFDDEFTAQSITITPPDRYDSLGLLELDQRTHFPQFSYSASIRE
Chain of ERK2 (P28482 whole entry, species assumed): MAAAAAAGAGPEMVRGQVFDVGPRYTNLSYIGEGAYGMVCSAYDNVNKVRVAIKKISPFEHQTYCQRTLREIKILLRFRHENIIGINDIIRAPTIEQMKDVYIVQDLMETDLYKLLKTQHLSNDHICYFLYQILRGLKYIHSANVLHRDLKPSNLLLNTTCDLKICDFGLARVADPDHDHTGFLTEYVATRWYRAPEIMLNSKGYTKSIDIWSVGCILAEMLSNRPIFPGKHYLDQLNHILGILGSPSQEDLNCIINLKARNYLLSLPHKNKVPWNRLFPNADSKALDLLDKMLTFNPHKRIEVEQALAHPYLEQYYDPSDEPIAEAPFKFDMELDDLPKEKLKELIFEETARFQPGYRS

SMILES | IC50 (GSK-3β; [1]) [nM] | other results
Nc1c(Br)cc(C(=O)C(Br)Br)cc1Br [CHEMBL1801628] | 500 | 
COc1cc(C2=C(c3cn(CCN4CCN(C)CC4)c4ccccc34)C(=O)NC2=O)c2occc2c1 [CHEMBL564450] | 0.14 | 
COc1cccc(Nc2nccc(C3=C(c4ccccc4)NN4C=CC=CC34)n2)c1 (centres unmarked) [CHEMBL403405] | 30 | 
Cc1ccc2c(c1)[C@]1(N[C@@H]([C@@H](C)O)[C@H]3C(=O)N(Cc4ccc5c(c4)OCO5)C(=O)[C@H]31)C(=O)N2 [Compound 10, (3S,3′R,3a′S,6a′R)-5′-(benzo[d][1,3]dioxol-5-ylmethyl)-3′-((R)-1-hydroxyethyl)-5-methyl-2′,3′,3a′,6a′-tetrahydro-4′H-spiro[indoline-3,1′-pyrrolo[3,4-c]pyrrole]-2,4′,6′(5′H)-trione] |  | inhibition at 50 µM (Homo sapiens GSK-3β): 6%
COc1ccc(Cn2cnc3c([nH]c4ccccc43)c2=O)cc1OC [Compound 9, 3-(3,4-dimethoxybenzyl)-3,5-dihydro-4H-pyrimido[5,4-b]indol-4-one] |  | inhibition at 50 µM (Homo sapiens GSK-3β): 9%
O=c1[nH]cnc2[nH]c(-c3ccnc(/C=C/c4ccc(CN5CCOCC5)cc4)c3)cc12 [CHEMBL461139] | 300 | 
CCc1ccc(-n2cc(CSc3nnc(Cn4c(C(F)(F)F)nc5ccccc54)o3)nn2)cc1 [CHEMBL4643895] | 390 | 
C=CCOC(=O)c1cc(-c2ccc(/C=C3/NC(=S)NC3=O)o2)ccc1Cl [CHEMBL4568120] | 218 | 
COc1ccc(Nc2c3c4c(cccc4[nH]c2=O)C(=O)c2ccccc2-3)cc1 [Compound 15] |  | IC50 (Homo sapiens GSK-3β): 11400 ± 600 nM
COc1ccc(-n2cnc3ccc(-c4nnc(SCc5cccc(C(F)(F)F)c5)o4)cc32)cc1 [CHEMBL513570] | 2.5 | 
O=C1c2ccccc2-c2c(Nc3ccccc3)c(O)nc3cccc1c23 [Compound 2, 1-(phenylamino)-3H-naphtho[1,2,3-de]quinoline-2,7-dione] |  | IC50 (Homo sapiens GSK-3β): 20600 ± 3800 nM
CCOC(=O)C/N=c1\nc(-c2ccc(OC)cc2)n(-c2ccccc2)s1 [CHEMBL2024372] | 500 | 
O=C(NCCc1cccnc1Cl)c1ccnc2[nH]c(-c3ccoc3)nc12 [CHEMBL2048673] | 9 | 
O=C1Nc2ccccc2/C1=C/c1ccccn1 [CHEMBL2094331] | 4.19 | 
CCCCNc1c2c3c(cccc3[nH]c1=O)C(=O)c1ccccc1-2 [Compound 19] |  | IC50 (Homo sapiens GSK-3β): < 10000 nM and 4900 nM; % remaining activity (GSK-3β) (Homo sapiens GSK-3β): < 50%; IC50 (GSK-3α): 1700 ± 100 nM; % remaining activity (GSK-3α) (GSK-3α): < 50%; IC50 (PKCγ): 11000 ± 1500 nM; IC50 (PKBβ): 24600 ± 200 nM
O=C1c2ccccc2-c2c(NC3CCCCC3)c(=O)[nH]c3cccc1c23 [Compound 18] |  | IC50 (Homo sapiens GSK-3β): 25300 ± 3500 nM
COc1ccc(Nc2nnc(-c3ccc(C(F)(F)F)cc3)o2)cc1 [CHEMBL1630483] | 53 | 
OCC/N=c1\nc(-c2ccccc2)n(-c2cccc3ccccc23)s1 [CHEMBL2022413] | 300 | 
COc1ccc2c(c1C(C)N1CCNCC1)O/C(=C\c1n[nH]c3ncccc13)C2=O (centres unmarked) [CHEMBL3735890] | 6.1 | 

SMILES | IC50 (GSK-3β; [1]) [nM] | other results
COc1ccncc1-c1ccc2[nH]nc(C(=O)NCC3CCN(CCc4ccccc4)CC3)c2c1 [CHEMBL3735603] | 20 | 
COc1ccc(Nc2c3c4c(c(Br)ccc4n(C)c2=O)C(=O)c2ccccc2-3)cc1 [Compound 17] |  | IC50 (Homo sapiens GSK-3β): 14000 ± 3100 nM
Cc1[nH]c2ccccc2c1C1=C(NCCc2ccc(F)cc2)C(=O)N(C)C1=O [CHEMBL1254896] | 53 | 
Cc1coc2cc3oc(=O)c(CC(=O)N[C@H]4CCCc5c4[nH]c4ccccc54)c(C)c3cc12 [Compound 7, (S)-2-(3,5-dimethyl-7-oxo-7H-furo[3,2-g]chromen-6-yl)-N-(2,3,4,9-tetrahydro-1H-carbazol-1-yl)acetamide] |  | inhibition at 50 µM (Homo sapiens GSK-3β): 10%
Clc1ccccc1-c1cc(NCOc2cccnc2)n2ncc(Br)c2n1 [CHEMBL398621] | 35 | 
N#Cc1ccc2[nH]c(O)c(-c3ccc(CN4CCOCC4)cn3)c2c1 [CHEMBL1969664] | 31 | 
Cc1ccc(-c2c[nH]c(C3COCCN3Cc3c[nH]c4ccccc34)n2)cc1 (centres unmarked) [CHEMBL2297166] | 120 | 
Fc1cnc2[nH]nc(Nc3cc(C(F)(F)F)cc(-c4ccccc4Cl)n3)c2c1 [CHEMBL3661029] | 50 | 
COc1cccc2c1cc1c3c(cc4c(c32)OCO4)C(=O)N1 [Compound 3, 8-methoxy-[1,3]dioxolo[4′,5′:4,5]benzo[1,2,3-cd]benzo[f]indol-5(6H)-one] |  | IC50 (Homo sapiens GSK-3β): 63700 ± 3300 nM
Cc1nn(-c2ccc(Cl)cc2Cl)c2c1c1c(c3cccn32)C(=O)NC1=O [CHEMBL3110144] |  | IC50 (GSK-3β): 240 nM
Cc1cc(C)cc(Nc2c3c4c(cccc4[nH]c2=O)C(=O)c2ccccc2-3)c1 [Compound 14] |  | IC50 (ERK2): 21300 nM; IC50 (Homo sapiens GSK-3β): < 10000 nM and 9100 nM; % remaining activity (GSK-3β) (Homo sapiens GSK-3β): < 50%; IC50 (GSK-3α): 2300 ± 400 nM; % remaining activity (GSK-3α) (GSK-3α): < 50%; IC50 (PKBβ): 14900 ± 1500 nM
COc1cc(F)cc(F)c1C1CN(c2nc(-c3ccncn3)cc(=O)n2C)CCN1 (centres unmarked) [CHEMBL4071429] | 1.7 | 
CN(C)C[C@@H](OC(=O)N1Cc2c(NC(=O)C(C)(C)C)n[nH]c2C1(C)C)c1ccccc1 [CHEMBL2064628] |  | IC50 (GSK-3β): 227 nM
Cc1ccc(-n2cc(CSC3=NC(c4ccccc4)CC(=O)N3C)nn2)cc1C (centres unmarked) [CHEMBL4635819] | 82 | 
Nc1ccc2ncnc3c2c1C(=O)c1ccccc1-3 [Compound 1, 6-amino-7H-benzo[e]perimidin-7-one] |  | IC50 (Homo sapiens GSK-3β): 1630 ± 300 nM
Cc1ccc(Nc2c3c4c(cccc4[nH]c2=O)C(=O)c2ccccc2-3)cc1 [Compound 13] |  | IC50 (Homo sapiens GSK-3β): < 10000 nM and 9400 nM
O=C1Nc2ccccc2C(=O)N2c3ccccc3C[C@@H]12 [Compound 5, (S)-12a,13-dihydro-6H-benzo[5,6][1,4]diazepino[1,2-a]indole-6,12(11H)-dione] |  | inhibition at 50 µM (Homo sapiens GSK-3β): 20%
Cn1c(=O)c(NCCO)c2c3c(cccc31)C(=O)c1ccccc1-2 [Compound 21] |  | IC50 (Homo sapiens GSK-3β): 17000 ± 2700 nM
O=CN1Cc2cccc3c(C4=C(c5cnc6ccccn56)C(=O)NC4=O)cn(c23)CC1N1CCOCC1 (centres unmarked) [CHEMBL4162850] | 1.3 | 
COc1ccc(-c2oc3ncnc(N)c3c2-c2cccnc2)cc1 [CHEMBL361567] | 80 | 
COc1ccc(-c2cc3c(NC(=O)CC4CCCC4)ncnc3o2)cc1 [CHEMBL182891] | 320 | 

SMILES | IC50 (GSK-3β; [1]) [nM] | other results
C[C@@H]1C[C@H]2CN1CCn1nc3c(cccc3c1O)-c1nc3c(cccc3nc1O)O2 [CHEMBL215803] | 13 | 
O=C(NC1CCNCC1)c1n[nH]cc1NC(=O)c1c(Cl)cccc1Cl [CHEMBL445813] | 200 | 
O=C1Cc2cc(Br)ccc2/C1=c1/[nH]c2ccccc2/c1=C\O [CHEMBL4077172] | 5 | 
O=C1Nc2ccccc2/C1=C1/Nc2cc(Br)ccc2C1=O [CHEMBL1830063] | 4 | 
COc1cc2c(cc1OC)[C@@H](c1c(O)[nH]c(=O)n(-c3ccc(C)c(C)c3)c1=O)NCC2 [Compound 11, (S)-5-(6,7-dimethoxy-1,2,3,4-tetrahydroisoquinolin-1-yl)-3-(3,4-dimethylphenyl)-6-hydroxypyrimidine-2,4(1H,3H)-dione] |  | inhibition at 50 µM (Homo sapiens GSK-3β): 2%
Cc1ccccc1-n1cc(-c2ccccn2)nn1 [CHEMBL1938959] | 490 | 
CN(C)CCn1cnc2c1c(=O)[nH]c(=O)n2Cc1ccccc1 [Compound 6, 3-benzyl-7-(2-(dimethylamino)ethyl)-3,7-dihydro-1H-purine-2,6-dione] |  | inhibition at 50 µM (Homo sapiens GSK-3β): 11%
COCCCNc1c(O)nc2cccc3c2c1-c1ccccc1C3=O [Compound 20] |  | IC50 (Homo sapiens GSK-3β): < 10000 nM and 9100 nM
COc1ccc([C@@H]2CC(=O)Nc3cccc4c3c2cn4Cc2ccccc2)c(OC)c1 [Compound 4, (R)-1-benzyl-3-(2,4-dimethoxyphenyl)-1,3,4,6-tetrahydro-5H-azepino[4,3,2-cd]indol-5-one] |  | IC50 (Homo sapiens GSK-3β): 87500 ± 9170 nM
O=C(/C=C/c1cnc2[nH]cc(-c3ccccc3)c2c1)NCCN1CCOCC1 [CHEMBL3891139] | 46 | 
COc1cccc(-n2ncc3c(N/N=C/c4ccc(OCCN(C)C)cc4)ncnc32)c1 [CHEMBL303321] | 6.31 | 
COc1ccc(-c2cc(-c3ccc(F)cc3)[nH]c(=O)c2O)cc1 [CHEMBL1630451] | 325 | 
O=C1N/C(=C/c2ccccc2)C(=O)N2Cc3ccccc3C[C@@H]12 [Compound 8, (S,E)-3-benzylidene-2,3,11,11a-tetrahydro-4H-pyrazino[1,2-b]isoquinoline-1,4(6H)-dione] |  | inhibition at 50 µM (Homo sapiens GSK-3β): 10%
O=C(CCl)c1scc(Br)c1Br [CHEMBL357136] | 500 | 
COc1ccc(-c2ocnc2C(=O)NCc2ccn3ccnc3c2)cc1Cl [CHEMBL1957231] | 5.01 | 
Nc1c2c3c(cccc3[nH]c1=O)C(=O)c1ccccc1-2 [Compound 22] |  | IC50 (Homo sapiens GSK-3β): 36700 ± 5700 nM
COc1ccccc1Nc1c2c3c(cccc3n(C)c1=O)C(=O)c1ccccc1-2 [Compound 16] |  | IC50 (Homo sapiens GSK-3β): 27100 ± 1100 nM
Oc1ccc(Nc2ncnc3[nH]cnc23)cc1CN(CCCl)CCCl [CHEMBL1630434] | 10.8 | 
O=C1Nc2cc(Cl)ccc2/C1=C/c1cccc2[nH]ccc12 [Compound 12, (Z)-3-((1H-indol-4-yl)methylene)-6-chloroindolin-2-one] |  | inhibition at 50 µM (Homo sapiens GSK-3β): < 0%
